# Measurements as given in patent publication US11040101B2, “Nanoparticles for cancer therapy and diagnosis” (UCL BUSINESS PLC, priority 2019, dated 2021).
# Target: cathepsin B (Homo sapiens, UniProt P07858)
# Experiment: Time-dependent fluorescence emission of ICG systems with or without cathepsin B
# Format: biochemical
# Conditions: after 24 h at 37° C. in PBS
# Description: The equivalent ICG concentration in all systems was 6 μg/mL. Fluorescence emission spectra of these systems were acquired over the course of 48 h. The excitation wavelength of 740 nm was used to obtain the fluorescence spectra. For the afore-mentioned experiments, spectra and fluorescence intensities were obtained using a CLARIOstar® High Performance Monochromator Multimode microplate reader (BMG LABTECH, UK).
smiles,measurement,value
"CC1(C)C(/C=C/C=C/C=C/C=C2\N(CCCCS(=O)(=O)O)c3ccc4ccccc4c3C2(C)C)=[N+](CCCCS(=O)(=O)[O-])c2ccc3ccccc3c21 [free ICG, Indocyanine green]",fluorescence emission of free ICG,suppressed
